Each structure is given as a SMILES string. A value given as a limit tells only on which side of the number the result lay.

Chain of PLK1 (P53350 whole entry): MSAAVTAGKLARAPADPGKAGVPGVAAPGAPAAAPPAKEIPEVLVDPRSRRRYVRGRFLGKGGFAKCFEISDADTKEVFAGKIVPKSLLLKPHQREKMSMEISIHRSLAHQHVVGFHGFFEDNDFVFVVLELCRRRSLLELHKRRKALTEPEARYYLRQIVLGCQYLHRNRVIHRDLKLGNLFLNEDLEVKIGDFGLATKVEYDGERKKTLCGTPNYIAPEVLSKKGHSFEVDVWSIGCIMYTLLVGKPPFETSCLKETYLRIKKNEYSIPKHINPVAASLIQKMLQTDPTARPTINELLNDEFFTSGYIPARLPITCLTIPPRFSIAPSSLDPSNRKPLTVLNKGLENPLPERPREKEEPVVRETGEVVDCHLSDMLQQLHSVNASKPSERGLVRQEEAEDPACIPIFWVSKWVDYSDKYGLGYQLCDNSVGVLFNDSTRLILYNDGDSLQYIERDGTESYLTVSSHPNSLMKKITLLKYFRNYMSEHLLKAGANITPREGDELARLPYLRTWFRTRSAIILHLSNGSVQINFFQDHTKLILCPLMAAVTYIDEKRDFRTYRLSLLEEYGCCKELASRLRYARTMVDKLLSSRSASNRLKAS

This assay addresses PLK1 (Homo sapiens, UniProt P53350). Put plainly: PLK1 Inhibition Assay I (radioactive-phosphate incorporation). The note with it: Ki(app); PLK1 Inhibition Assay I or II (table does not say which). The class given is biochemical. On the procedure:
The compounds of the present invention are evaluated as inhibitors of human PLK kinase using the following assays.
Compounds were screened for their ability to inhibit PLK1 using a radioactive-phosphate incorporation assay. Assays were carried out in a mixture of 25 mM HEPES (pH 7.5), 10 mM MgCl2, and 1 mM DTT. Final substrate concentrations were 350 μM [γ-33P]ATP (136 mCi 33P ATP/mmol ATP, Amersham Pharmacia Biotech/Sigma Chemicals) and 450 μM peptide (KKKISDELMDATFADQEAK) [SEQ. ID:1]. Assays were carried out at 25° C. in the presence of 2 nM PLK1. An assay stock buffer solution was prepared containing all of the reagents listed above, with the exception of ATP and the test compound of interest. 30 μL of the stock solution was placed in a 96 well plate followed by addition of 2 μL of DMSO stock containing serial dilutions of the test compound (typically starting from a final concentration of 10 μM with 2-fold serial dilutions) in duplicate (final DMSO concentration 5%). The plate was pre-incubated for 10 minutes at 25° C. and the reaction initiated by addition of 8 μL [γ-33P]ATP (final concentration 350 μM).
The reaction was stopped after 240 minutes by the addition of 100 μL 0.14M phosphoric acid. A multiscreen phosphocellulose filter 96-well plate (Millipore, Cat No. MAPHN0B50) was pretreated with 100 μL 0.1 M phosphoric acid prior to the addition of 125 μL of the stopped assay mixture. The plate was washed with 4×200 μL 0.1 M phosphoric acid. After drying, 100 μL Optiphase ‘SuperMix’ liquid scintillation cocktail (Perkin Elmer) was added to the well prior to scintillation counting (1450 Microbeta Liquid Scintillation Counter, Wallac).
After removing mean background values for all of the data points, Ki(app) data were calculated from non-linear regression analysis of the initial rate data using the Prism software package (GraphPad Prism version 3.0cx for Macintosh, GraphPad Software, San Diego Calif., USA).
As to `CC(=O)C(=O)N1CCC([C@@H](C)Nc2ncc(C#N)c(-c3c[nH]c4ncc(C(F)(F)F)cc34)n2)CC1` [Compound I-231, 2-((R)-1-(1-(2-oxopropanoyl)piperidin-4-yl)ethylamino)-4-(5-(trifluoromethyl)-1H-pyrrolo[2,3-b]pyridin-3-yl)pyrimidine-5-carbonitrile], the Ki was less than 3 nM.

In the case of `N#Cc1cnc(Sc2cccc(Br)c2)nc1-c1c[nH]c2ncc(C(F)(F)F)cc12` [II-4, 2-(3-bromophenylthio)-4-(5-(trifluoromethyl)-1H-pyrrolo[2,3-b]pyridin-3-yl)pyrimidine-5-carbonitrile], the Ki is more than 40 nM.

For the compound `C[C@@H](Nc1ncc(C#N)c(-c2c[nH]c3ncc(C(F)(F)F)cc23)n1)C1CCN(C(=O)[C@H](N)c2ccccc2)CC1` [Compound I-248, 2-((R)-1-(1-((R)-2-amino-2-phenylacetyl)piperidin-4-yl)ethylamino)-4-(5-(trifluoromethyl)-1H-pyrrolo[2,3-b]pyridin-3-yl)pyrimidine-5-carbonitrile], the Ki was 3 to 40 nM.

`N#Cc1cnc(NCc2ccc(Cl)cc2)nc1-c1c[nH]c2ncc(C(F)(F)F)cc12` [Compound I-19, 2-(4-chlorobenzylamino)-4-(5-(trifluoromethyl)-1H-pyrrolo[2,3-b]pyridin-3-yl)pyrimidine-5-carbonitrile]: the Ki was more than 40 nM.

For the compound `N#Cc1cnc(NCCCN2CCOCC2)nc1-c1c[nH]c2ncc(C(F)(F)F)cc12` [Compound I-70, 2-(3-morpholinopropylamino)-4-(5-(trifluoromethyl)-1H-pyrrolo[2,3-b]pyridin-3-yl)pyrimidine-5-carbonitrile], the Ki is more than 40 nM.

In the case of `C[C@@H](Nc1ncc(C#N)c(-c2c[nH]c3ncc(C(F)(F)F)cc23)n1)C1CCN(C(=O)[C@H]2C[C@@H](O)CN2)CC1` [Compound I-262, 2-((R)-1-(1-((2R,4R)-4-hydroxypyrrolidine-2-carbonyl)piperidin-4-yl)ethylamino)-4-(5-(trifluoromethyl)-1H-pyrrolo[2,3-b]pyridin-3-yl)pyrimidine-5-carbonitrile], the Ki was less than 3 nM.

With `C[C@@H](Nc1ncc(C#N)c(-c2c[nH]c3ncc(C(F)(F)F)cc23)n1)C1CCN(C(=O)[C@@H]2CCCN2)CC1` [Compound I-236, 2-((R)-1-(1-((S)-pyrrolidine-2-carbonyl)piperidin-4-yl)ethylamino)-4-(5-(trifluoromethyl)-1H-pyrrolo[2,3-b]pyridin-3-yl)pyrimidine-5-carbonitrile], the Ki is less than 3 nM.

In the case of `C[C@@H](Nc1ncc(C#N)c(-c2c[nH]c3ncc(C(F)(F)F)cc23)n1)c1ccc(NC(=O)C2CC2)cc1` [Compound I-137, N-(4-((1R)-1-(5-cyano-4-(5-(trifluoromethyl)-1H-pyrrolo[2,3-b]pyridin-3-yl)pyrimidin-2-ylamino)ethyl)phenyl)cyclopropanecarboxamide], the Ki is less than 3 nM.

With `N#Cc1cnc(NC2CC2c2ccccc2)nc1-c1c[nH]c2ncc(C(F)(F)F)cc12` (stereo not shown) [Compound I-27, 2-(2-phenylcyclopropylamino)-4-(5-(trifluoromethyl)-1H-pyrrolo[2,3-b]pyridin-3-yl)pyrimidine-5-carbonitrile], the Ki is more than 40 nM.

Turning to `C[C@@H](Nc1ncc(C#N)c(-c2c[nH]c3ncc(C(F)(F)F)cc23)n1)c1ccc(N2CCN3CCC[C@@H]3C2)nc1` [Compound I-298, 2-((R)-1-(6-((R)-hexahydropyrrolo[1,2-a]pyrazin-2(1H)-yl)pyridin-3-yl)ethylamino)-4-(5-(trifluoromethyl)-1H-pyrrolo[2,3-b]pyridin-3-yl)pyrimidine-5-carbonitrile], the Ki is less than 3 nM.

With `CC(C)(Nc1ncc(C#N)c(-c2c[nH]c3ncccc23)n1)C(=O)NCC(F)(F)F` [IA-10, 2-(5-cyano-4-(1H-pyrrolo[2,3-b]pyridin-3-yl)pyrimidin-2-ylamino)-2-methyl-N-(2,2,2-trifluoroethyl)propanamide], the Ki was more than 40 nM.

Consider `CC(C)[C@@H](N)C(=O)N1CCC([C@@H](C)Nc2ncc(C#N)c(-c3c[nH]c4ncc(C(F)(F)F)cc34)n2)CC1` [Compound I-229, 2-((R)-1-(1-((R)-2-amino-3-methylbutanoyl)piperidin-4-yl)ethylamino)-4-(5-(trifluoromethyl)-1H-pyrrolo[2,3-b]pyridin-3-yl)pyrimidine-5-carbonitrile], for which the Ki was less than 3 nM.

With `CCN(Cc1ccccc1)c1ncc(C#N)c(-c2c[nH]c3ncc(C(F)(F)F)cc23)n1` [Compound I-11, 2-(benzyl(ethyl)amino)-4-(5-(trifluoromethyl)-1H-pyrrolo[2,3-b]pyridin-3-yl)pyrimidine-5-carbonitrile], the Ki was more than 40 nM.

Regarding `C[C@@H](Nc1ncc(C#N)c(-c2c[nH]c3ncc(C(F)(F)F)cc23)n1)c1cccc(C(F)(F)F)c1` [Compound I-45, 4-(5-(trifluoromethyl)-1H-pyrrolo[2,3-b]pyridin-3-yl)-2-((R)-1-(3-(trifluoromethyl)phenyl)ethylamino)pyrimidine-5-carbonitrile], the Ki is 3 to 40 nM.

On to `C[C@@H](Nc1ncc(C#N)c(-c2c[nH]c3ncc(C(F)(F)F)cc23)n1)c1ccc(NS(C)(=O)=O)cc1` [Compound I-136, N-(4-((1R)-1-(5-cyano-4-(5-(trifluoromethyl)-1H-pyrrolo[2,3-b]pyridin-3-yl)pyrimidin-2-ylamino)ethyl)phenyl)methanesulfonamide], for which the Ki was less than 3 nM.

On to `CC(C)[C@@H](O)C(=O)N1CCC([C@@H](C)Nc2ncc(C#N)c(-c3c[nH]c4ncc(C(F)(F)F)cc34)n2)CC1` [Compound I-256, 2-((R)-1-(1-((R)-2-hydroxy-3-methylbutanoyl)piperidin-4-yl)ethylamino)-4-(5-(trifluoromethyl)-1H-pyrrolo[2,3-b]pyridin-3-yl)pyrimidine-5-carbonitrile], for which the Ki was less than 3 nM.

As to `C[C@H](Nc1ncc(C#N)c(-c2c[nH]c3ncc(C(F)(F)F)cc23)n1)c1ccccc1` [Compound I-5, 2-((S)-1-phenylethylamino)-4-(5-(trifluoromethyl)-1H-pyrrolo[2,3-b]pyridin-3-yl)pyrimidine-5-carbonitrile], the Ki was more than 40 nM.

Turning to `COc1ccc(Sc2ncc(C#N)c(-c3c[nH]c4ncc(C(F)(F)F)cc34)n2)cc1` [II-3, 2-(4-methoxyphenylthio)-4-(5-(trifluoromethyl)-1H-pyrrolo[2,3-b]pyridin-3-yl)pyrimidine-5-carbonitrile], the Ki is more than 40 nM.

For `CNCC(=O)N1CCC(C(C)Nc2ncc(C#N)c(-c3c[nH]c4ncc(C(F)(F)F)cc34)n2)CC1` (stereo not shown) [Compound I-189, 2-(1-(1-(2-(methylamino)acetyl)piperidin-4-yl)ethylamino)-4-(5-(trifluoromethyl)-1H-pyrrolo[2,3-b]pyridin-3-yl)pyrimidine-5-carbonitrile], the Ki was less than 3 nM.

Regarding `C[C@@H](Nc1ncc(C#N)c(-c2c[nH]c3ncc(C(F)(F)F)cc23)n1)C1CCN(C(=O)[C@H]2CCN2)CC1` [Compound I-259, 2-((R)-1-(1-((R)-azetidine-2-carbonyl)piperidin-4-yl)ethylamino)-4-(5-(trifluoromethyl)-1H-pyrrolo[2,3-b]pyridin-3-yl)pyrimidine-5-carbonitrile], the Ki was less than 3 nM.

With `CC(C)(Nc1ncc(C#N)c(-c2c[nH]c3ncc(C(F)(F)F)cc23)n1)C(=O)NCCO` [IA-14, 2-(5-cyano-4-(5-(trifluoromethyl)-1H-pyrrolo[2,3-b]pyridin-3-yl)pyrimidin-2-ylamino)-N-(2-hydroxyethyl)-2-methylpropanamide], the Ki was more than 40 nM.

For `C[C@@H](Nc1ncc(C#N)c(-c2c[nH]c3ncc(C(F)(F)F)cc23)n1)[C@H]1CC[C@@H](O)CC1` [Compound I-180, 2-((R)-1-((1s,4S)-4-hydroxycyclohexyl)ethylamino)-4-(5-(trifluoromethyl)-1H-pyrrolo[2,3-b]pyridin-3-yl)pyrimidine-5-carbonitrile], the Ki is less than 3 nM.

For the compound `CC(Nc1ncc(C#N)c(-c2c[nH]c3ncc(C(F)(F)F)cc23)n1)C1CCN(C(=O)C2CC2)CC1` (stereo not shown) [Compound I-159, 2-(1-(1-(cyclopropanecarbonyl)piperidin-4-yl)ethylamino)-4-(5-(trifluoromethyl)-1H-pyrrolo[2,3-b]pyridin-3-yl)pyrimidine-5-carbonitrile], the Ki is less than 3 nM.

Take `CCNc1ncc(C#N)c(-c2c[nH]c3ncc(C(F)(F)F)cc23)n1` [Compound I-66, 2-(ethylamino)-4-(5-(trifluoromethyl)-1H-pyrrolo[2,3-b]pyridin-3-yl)pyrimidine-5-carbonitrile]: the Ki was more than 40 nM.

For the compound `COc1cc(CNc2ncc(C#N)c(-c3c[nH]c4ncc(C(F)(F)F)cc34)n2)ccc1O` [Compound I-42, 2-(4-hydroxy-3-methoxybenzylamino)-4-(5-(trifluoromethyl)-1H-pyrrolo[2,3-b]pyridin-3-yl)pyrimidine-5-carbonitrile], the Ki is more than 40 nM.

For the origin of these results see patent publication US8530489B2 (Vertex Pharmaceuticals Incorporated, priority 2006, dated 2013).
